Laboratory results as given in patent US8951752B2, “N-demethyase genes and uses thereof” (priority 2011, dated 2015).

What was measured:
[1] = target: T1, Caffeine dehydrogenase (Cdh) from CBB1 (Pseudomonas sp., UniProt D7REY3); details: cited from earlier work
T1 sequence (D7REY3 1-791): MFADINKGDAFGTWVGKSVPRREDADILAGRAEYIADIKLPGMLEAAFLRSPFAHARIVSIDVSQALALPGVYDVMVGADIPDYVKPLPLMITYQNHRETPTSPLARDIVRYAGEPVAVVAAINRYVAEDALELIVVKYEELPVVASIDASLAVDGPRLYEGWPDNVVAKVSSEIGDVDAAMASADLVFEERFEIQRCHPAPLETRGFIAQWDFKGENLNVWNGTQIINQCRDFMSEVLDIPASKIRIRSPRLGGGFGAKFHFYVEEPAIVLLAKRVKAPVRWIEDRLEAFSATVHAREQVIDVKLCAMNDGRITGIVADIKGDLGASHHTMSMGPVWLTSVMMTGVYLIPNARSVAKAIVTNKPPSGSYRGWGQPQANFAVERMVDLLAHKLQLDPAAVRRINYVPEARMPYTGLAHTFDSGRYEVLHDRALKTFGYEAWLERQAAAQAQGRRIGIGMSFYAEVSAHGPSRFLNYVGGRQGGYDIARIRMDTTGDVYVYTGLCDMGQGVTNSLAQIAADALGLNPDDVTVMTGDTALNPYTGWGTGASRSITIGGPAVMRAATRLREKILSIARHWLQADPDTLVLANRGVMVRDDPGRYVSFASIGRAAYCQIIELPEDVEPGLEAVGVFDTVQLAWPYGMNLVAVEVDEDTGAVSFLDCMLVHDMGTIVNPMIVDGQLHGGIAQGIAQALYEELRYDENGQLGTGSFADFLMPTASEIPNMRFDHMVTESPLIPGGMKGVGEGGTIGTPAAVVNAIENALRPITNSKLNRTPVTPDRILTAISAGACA
T1 sequence (D7REY4 1-295 partner): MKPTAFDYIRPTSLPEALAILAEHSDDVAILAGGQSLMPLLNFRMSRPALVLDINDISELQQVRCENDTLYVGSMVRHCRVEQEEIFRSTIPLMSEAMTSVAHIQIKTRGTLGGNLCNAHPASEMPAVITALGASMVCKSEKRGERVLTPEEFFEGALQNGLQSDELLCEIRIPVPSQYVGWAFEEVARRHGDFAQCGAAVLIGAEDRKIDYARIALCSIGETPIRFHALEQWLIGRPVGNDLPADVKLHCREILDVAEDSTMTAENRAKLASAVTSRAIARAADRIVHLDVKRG
T1 sequence (D7REY5 1-167 partner): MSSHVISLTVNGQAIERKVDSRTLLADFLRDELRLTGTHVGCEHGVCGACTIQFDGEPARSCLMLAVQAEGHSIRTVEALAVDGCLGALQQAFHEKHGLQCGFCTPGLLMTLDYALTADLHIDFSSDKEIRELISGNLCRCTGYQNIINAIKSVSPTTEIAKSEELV

[2] = target: T2, NdmA-His6 (Pseudomonas putida, UniProt H9N289); assay: Methylxanthine N-demethylase assay and kinetics, NdmA-His6 with His6-NdmD; format: biochemical, Pseudomonas putida CBB5
T2 construct: made in house; host or cells: E. coli BL21(DE3)
T2 sequence (H9N289 1-351): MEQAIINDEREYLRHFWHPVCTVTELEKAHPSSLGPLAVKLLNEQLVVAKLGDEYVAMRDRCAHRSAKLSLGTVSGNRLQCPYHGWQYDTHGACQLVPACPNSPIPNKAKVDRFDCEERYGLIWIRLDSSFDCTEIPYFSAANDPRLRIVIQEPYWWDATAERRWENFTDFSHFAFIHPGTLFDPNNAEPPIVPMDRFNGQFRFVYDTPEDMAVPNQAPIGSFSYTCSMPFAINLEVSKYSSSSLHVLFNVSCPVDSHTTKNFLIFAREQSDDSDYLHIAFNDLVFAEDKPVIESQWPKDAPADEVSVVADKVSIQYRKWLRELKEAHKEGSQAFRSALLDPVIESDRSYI
Procedure: Methylxanthine N-demethylase activity assay contained, in 1-ml total volume, 0.5 mM methylxanthine, 1 mM NADH, 50 μM Fe(NH4)2(SO4)2, and an appropriate amount of NdmA-His6 or NdmB-His6 (7.4 μg-2.5 mg protein depending on substrate specificity) in 50 mM KPi buffer (pH 7.5). Approximately 4 U of partially purified reductase, prepared as described previously (Summers et al., 2011) or 59 U of purified His6-NdmD was added to reaction mixture. Catalase from bovine liver (4,000 U) was also added to reactions containing His6-NdmD. The reaction mixture was incubated at 30° C. with 300 rpm shaking on an incubating microplate shaker (VWR, Radnor, Pa.). Periodically, a small aliquot was sampled from the reaction mixture and mixed with equal volume of acetonitrile for quantifying concentrations of methylxanthines and N-demethylated products by HPLC. One unit of N-demethylase activity was defined as the consumption of one […] methylxanthine per minute.
Apparent kinetic parameters of NdmA-His6 and NdmB-His6 were determined by measuring the initial rate of disappearance (vo) of methylxanthines in 50 mM KPi buffer (pH 7.5) at 30° C. The initial substrate concentrations (ESI) used in these experiments were from 25 to 500 μM. Substrates were incubated with His6-NdmD plus either NdmA-His6 or NdmB-His6 under standard conditions for 15 minutes. At 1, 5, 10, and 15 minutes, samples were removed from the reaction mixtures to quantitate substrate concentrations by HPLC. Plots of substrate concentrations against time were used to determine the initial rates of disappearance of substrates which were linear over 15 minutes. The apparent kinetic parameters were determined from Michaelis-Menten plots of vo against [S] fitted with the equation

[3] = tested on: NdmC

For Cn1cnc2c1c(=O)[nH]c(=O)n2C [Theobromine, 3,7-dimethylxanthine], the “preference as a substrate, times less than caffeine” value [1] is given as 50 times, the “N-demethylase activity” value ([2]; NdmA) is given as “inactive” and the Km ([2]; NdmA-His6, 30° C., pH 7.5, ∞ where no activity) is given as “∞”. For the same compound, the “N-demethylation by NdmC fraction” value [3] was “not N-demethylated”.
